Measured values published in paper PMC4676711 (ACS chemical neuroscience, 2015).

Test: plasma stability
Format: in vitro ADME
Conditions: mouse, plasma (K2 EDTA)

Compound: CC1CC(OC(=O)C(O)c2ccccc2)CC(C)(C)N1C (stereo not shown) [Eucatropine]
- remaining at 0.5 h, 1 μM: 43.2%
